From PubChem BioAssay AID248 (DTP/NCI, 2004)
Several values for one entry are separate records, joined by “and”; a condition that tells them apart may be missing. Identical values can stand only once. Toxic doses and inconclusive results are not listed. Cut-off read from the data, not from the text of the source: active = T/C of 150% or more; inactive = T/C below 125%.

Test system: L1210 leukemia ip in BDF1 mice, survival T/C
Assay: NCI In Vivo Anticancer Drug Screen. Data for tumor model L1210 Leukemia (intraperitoneal) in B6D2F1 (BDF1) mice
Details: endpoint: mean survival time, higher = longer survival
How it was run: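 Tumor was transplanted into mice, which were then dosed with test compound or vehicle alone. Survival was recorded for each group, and the treated figure was expressed relative to the control figure.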

[1] = dose: 100.0 mg/kg/injection, schedule: Q01DX001 (ip), vehicle: saline
[2] = dose: 200.0 mg/kg/injection, schedule: Q01DX001 (ip), vehicle: saline
[3] = dose: 400.0 mg/kg/injection, schedule: Q01DX001 (ip), vehicle: saline
[4] = dose: 100.0 mg/kg/injection, schedule: Q01DX009 (ip), vehicle: Klucel (hydroxypropylcellulose) (HPC)
[5] = dose: 100.0 mg/kg/injection, schedule: Q04DX003 (ip), vehicle: Klucel (hydroxypropylcellulose) (HPC)
[6] = dose: 200.0 mg/kg/injection, schedule: Q01DX009 (ip), vehicle: Klucel (hydroxypropylcellulose) (HPC)
[7] = dose: 200.0 mg/kg/injection, schedule: Q04DX003 (ip), vehicle: Klucel (hydroxypropylcellulose) (HPC)
[8] = dose: 400.0 mg/kg/injection, schedule: Q01DX009 (ip), vehicle: Klucel (hydroxypropylcellulose) (HPC)
[9] = dose: 400.0 mg/kg/injection, schedule: Q04DX003 (ip), vehicle: Klucel (hydroxypropylcellulose) (HPC)
[10] = dose: 100.0 mg/kg/injection, schedule: Q01DX001 (ip), vehicle: carboxymethylcellulose (CMC)
[11] = dose: 200.0 mg/kg/injection, schedule: Q01DX001 (ip), vehicle: carboxymethylcellulose (CMC)
[12] = dose: 400.0 mg/kg/injection, schedule: Q01DX001 (ip), vehicle: carboxymethylcellulose (CMC)
[13] = dose: 100.0 mg/kg/injection, schedule: Q04DX002 (ip), vehicle: Klucel (hydroxypropylcellulose) (HPC)
[14] = dose: 200.0 mg/kg/injection, schedule: Q04DX002 (ip), vehicle: Klucel (hydroxypropylcellulose) (HPC)
[15] = dose: 400.0 mg/kg/injection, schedule: Q04DX002 (ip), vehicle: Klucel (hydroxypropylcellulose) (HPC)
[16] = dose: 12.5 mg/kg/injection, schedule: Q01DX009 (ip), vehicle: saline
[17] = dose: 100.0 mg/kg/injection, schedule: Q04DX003 (ip), vehicle: saline
[18] = dose: 200.0 mg/kg/injection, schedule: Q04DX003 (ip), vehicle: saline
[19] = dose: 25.0 mg/kg/injection, schedule: Q04DX003 (ip), vehicle: saline
[20] = dose: 50.0 mg/kg/injection, schedule: Q04DX003 (ip), vehicle: saline

Measured: T/C

Cc1cc(C(=O)O)ccc1Cl
inactive: dose: 100.0 mg/kg/injection, schedule: Q04DX003 (ip), vehicle: other 101 % of control | dose: 200.0 mg/kg/injection, schedule: Q04DX003 (ip), vehicle: other 101 % of control | dose: 400.0 mg/kg/injection, schedule: Q04DX003 (ip), vehicle: other 103 % of control

CCCCCCCCCCCCCC1=NCCN1CCO
inactive: dose: 5.0 mg/kg/injection, schedule: Q01DX009 (ip), vehicle: saline 94 % of control | dose: 10.0 mg/kg/injection, schedule: Q01DX009 (ip), vehicle: saline 96 % of control | dose: 20.0 mg/kg/injection, schedule: Q01DX009 (ip), vehicle: saline 86 % of control

O=[N+]([O-])C12CC3CC(CC(C3)C1)C2
inactive: dose: 100.0 mg/kg/injection, schedule: Q01DX001 (sc), vehicle: olive oil, sesame oil, peanut oil 114 % of control | dose: 200.0 mg/kg/injection, schedule: Q01DX001 (sc), vehicle: olive oil, sesame oil, peanut oil 108 % of control | dose: 400.0 mg/kg/injection, schedule: Q01DX001 (sc), vehicle: olive oil, sesame oil, peanut oil 93 % of control

CCCCCCCCCCCCCCNC(=O)Nc1ccc(Cl)c(Cl)c1
inactive: [1] 95 % of control | [2] 92 % of control | [3] 95 % of control

CCOC(=O)/C(C#N)=C/c1ccc(O)c(OC)c1
inactive: [4] 101 % of control | [5] 102 % of control | [6] 94 % of control | [7] 96 % of control | [8] 89 % of control | [9] 95 % of control

CC(=O)c1cc(-c2ccccc2)nc2c(C)c(Cl)ccc12
inactive: [10] 90 % of control | [11] 92 % of control | [12] 90 % of control

CCCCCCCCCCCCC#N
inactive: [4] 111 % of control | [5] 110 % of control | [6] 119 % of control | [7] 113 % of control | [8] 100 % of control | [9] 117 % of control

CCNCCCNc1ccnc2cc(Cl)ccc12
inactive: dose: 10.0 mg/kg/injection, schedule: Q01DX001 (ip), vehicle: saline 96 % of control | dose: 20.0 mg/kg/injection, schedule: Q01DX001 (ip), vehicle: saline 98 % of control | dose: 40.0 mg/kg/injection, schedule: Q01DX001 (ip), vehicle: saline 93 % of control

CC1=C(N2CCN(c3ccc(Cl)cc3)CC2)C(=O)CC(C)(C)C1
inactive: [1] 97 % of control | [2] 101 % of control | [3] 103 % of control

O=C(C(O[N+](=O)[O-])c1ccccc1)C(O[N+](=O)[O-])c1ccccc1 (centres undefined)
inactive: dose: 100.0 mg/kg/injection, schedule: Q01DX001 (ip), vehicle: Klucel (hydroxypropylcellulose) (HPC) 95 % of control | dose: 200.0 mg/kg/injection, schedule: Q01DX001 (ip), vehicle: Klucel (hydroxypropylcellulose) (HPC) 95 % of control | dose: 400.0 mg/kg/injection, schedule: Q01DX001 (ip), vehicle: Klucel (hydroxypropylcellulose) (HPC) 93 % of control

Cc1ccc(S(=O)(=O)ON2C(=O)c3cccc4cc([N+](=O)[O-])cc(c34)C2=O)cc1
inactive: [1] 95 % of control | [2] 101 % of control | [3] 104 % of control

CCOC(=O)c1cnn(-c2ccccc2)c1C
inactive: [4] 94 % of control | [5] 112 % of control | [6] 94 % of control | [7] 95 % of control | [8] 102 % of control | [9] 88 % of control

O=P(c1cccc(C(F)(F)F)c1)(c1cccc(C(F)(F)F)c1)c1cccc(C(F)(F)F)c1.O=P(c1cccc(C(F)(F)F)c1)(c1cccc(C(F)(F)F)c1)c1cccc(C(F)(F)F)c1.[Cl][Sn]([Cl])([Cl])[Cl]
inactive: [13] 100 % of control | [14] 96 % of control | [15] 86 % of control

CCN(CC)c1ccc(C(=O)OC(C)CNCC(C)CCCC(C)C)cc1 (centres undefined)
inactive: dose: 75.0 mg/kg/injection, schedule: Q01DX001 (ip), vehicle: carboxymethylcellulose (CMC) 90 % of control | dose: 150.0 mg/kg/injection, schedule: Q01DX001 (ip), vehicle: carboxymethylcellulose (CMC) 94 % of control | dose: 300.0 mg/kg/injection, schedule: Q01DX001 (ip), vehicle: carboxymethylcellulose (CMC) 93 % of control

C/C(=N/Nc1ccccc1)c1ccccn1
inactive: [5] 98 % of control | [7] 96 % of control | [9] 98 % of control

CNc1ccccc1Cc1ccccc1
inactive: [4] 96 % of control | [5] 103 % of control | [6] 99 % of control | [7] 93 % of control | [9] 98 % of control

Fc1cccc(CSc2ncnc3nc[nH]c23)c1
inactive: [16] 104 % of control | dose: 25.0 mg/kg/injection, schedule: Q01DX009 (ip), vehicle: saline 119 % of control | dose: 50.0 mg/kg/injection, schedule: Q01DX009 (ip), vehicle: saline 120 % of control | dose: 175.0 mg/kg/injection, schedule: Q01DX001 (ip), vehicle: saline 105 % of control and 116 % of control | dose: 265.0 mg/kg/injection, schedule: Q01DX001 (ip), vehicle: saline 115 % of control | [3] 119 % of control

CCN(CC)CC(=O)NCC(CCN(C)C)(c1cccc2ccccc12)C(C)C (centres undefined)
inactive: [17] 102 % of control | [18] 93 % of control

OCC1(CO)CC=CCC1
inactive: [19] 95 % of control | [20] 105 % of control | [10] 103 % of control | [17] 94 % of control and 89 % of control | [11] 95 % of control | [12] 103 % of control

CCCCCNCCC[P+](c1ccccc1)(c1ccccc1)c1ccccc1
inactive: dose: 25.0 mg/kg/injection, schedule: Q04DX002 (ip), vehicle: saline 98 % of control | dose: 50.0 mg/kg/injection, schedule: Q04DX002 (ip), vehicle: saline 105 % of control | dose: 100.0 mg/kg/injection, schedule: Q04DX002 (ip), vehicle: saline 119 % of control

COc1ccc(C=O)cc1OC
inactive: [4] 101 % of control | [6] 102 % of control | [8] 96 % of control

CCCCC(=O)N/N=C/c1ccc(O)cc1O
inactive: [1] 97 % of control | [2] 92 % of control | [3] 94 % of control

CCN(Cc1ccccc1)c1nnnn1-c1ccccc1
inactive: [17] 96 % of control | [18] 103 % of control | dose: 400.0 mg/kg/injection, schedule: Q04DX003 (ip), vehicle: saline 98 % of control

CC1(C)C2CCC1(C)C(C(=O)C(F)(F)F)C2=O.CC1(C)C2CCC1(C)C(C(=O)C(F)(F)F)C2=O.[Mn] (centres undefined)
inactive: dose: 50.0 mg/kg/injection, schedule: Q04DX002 (ip), vehicle: saline with Tween-80 94 % of control | dose: 100.0 mg/kg/injection, schedule: Q04DX002 (ip), vehicle: saline with Tween-80 98 % of control | dose: 200.0 mg/kg/injection, schedule: Q04DX002 (ip), vehicle: saline with Tween-80 98 % of control

CC1=CC(=O)CC(C)C2CC(=C(C)C)CC12 (centres undefined)
inactive: [5] 100 % of control | [7] 108 % of control | [9] 100 % of control

Cc1ccc(OC(=O)NC(C)(C)C)cc1
inactive: [13] 105 % of control | [14] 109 % of control | [15] 105 % of control

C/C=C\c1ccc(OC(=O)Nc2cccc(Cl)c2)c(OC)c1
inactive: [13] 101 % of control | [14] 95 % of control | [15] 92 % of control

CC(C)COC(=O)c1ccc(NC(=S)Nc2ccccc2)cc1
inactive: [4] 93 % of control | [6] 93 % of control

CC1OC(CO)C(O)C(O)C1NC(=O)c1ccccc1 (centres undefined)
inactive: dose: 50.0 mg/kg/injection, schedule: Q01DX009 (ip), vehicle: saline with Tween-80 98 % of control | dose: 100.0 mg/kg/injection, schedule: Q01DX009 (ip), vehicle: saline with Tween-80 103 % of control | dose: 200.0 mg/kg/injection, schedule: Q01DX009 (ip), vehicle: saline with Tween-80 103 % of control

c1ccc([P+](Cc2ccc3c(c2)OCO3)(c2ccccc2)c2ccccc2)cc1
inactive: dose: 12.5 mg/kg/injection, schedule: Q01DX001 (ip), vehicle: saline 98 % of control | [16] 101 % of control | dose: 12.5 mg/kg/injection, schedule: Q04DX003 (ip), vehicle: saline 95 % of control | dose: 25.0 mg/kg/injection, schedule: Q01DX001 (ip), vehicle: saline 95 % of control | [19] 106 % of control | dose: 50.0 mg/kg/injection, schedule: Q01DX001 (ip), vehicle: saline 96 % of control | [20] 88 % of control
